{"source": "patent US20130071439A1", "about": "“METHODS AND COMPOSITIONS FOR TREATING BIOFILMS” (PRESIDENT AND FELLOWS OF HARVARD COLLEGE, priority 2010, published 2013)", "key": {"Pseudomonas aeruginosa": {"test_system": "Pseudomonas aeruginosa", "assay": "Attached single cells in 6 well plate, Syto-9/SYTOX staining", "format": "cell-based", "protocol": "An alternative method to observe biofilm formation on a 6 well plate with or without D-amino acids and using Syto-9 staining was as follows: Pseudomonas aeruginosa biofilms were washed twice with PBS and then fixed for at least an hour in 5% Glutaraldehyde in PBS. The fixed biofilms were then rinsed once again with PBS and soaked in 0.1% v/v Triton X-100 in PBS (PBST) for 15 minutes. The solution was exchanged with 0.1 nM SYTOX green (Invitrogen) in cold PBST and gently rocked in the dark for at least 15 minutes. Fluorescence images of the biofilms were captured with a Leica DMRX compound microscope using a Xe lamp and a K3 Leica filtercube. […] The amount of attached single cells was quantified using image J. The decrease in the amount of cells attached to the epoxy surfaces soaked with D-aa compared with the L-aa control was substantially more."}, "S. aureus (strain SCO1)": {"test_system": "S. aureus (strain SCO1)", "assay": "Biofilm formation on polystyrene, crystal violet staining", "format": "cell-based, Staphylococcus aureus", "settings": "50 μM, 24 hours at 37° C., TSB", "protocol": "Crystal violet staining was done as described previously (O'Toole et al., Mol. Microbiol. 30:295 (1998)) except that the cells were grown in […]. Wells were stained with 500 μl of 1.0% Crystal-violet dye, rinsed twice with 2 ml double-distilled water and thoroughly dried.\nThe effect of D-amino acids on biofilm formation by other bacteria was examined. The pathogenic bacterium Staphylococcus aureus forms biofilms on plastic surfaces (Otto, Curr. Top. Microbiol. Immunol. 322:207 (2008)), which can be detected by washing away unbound cells and staining the bound cells with crystal violet. […] Additionally added to the wells were no amino acids (untreated), D-tyrosine (50 μM) or the D-amino acid mixture ([…] each). Cells bound to the polystyrene were visualized by washing away unbound cells and then staining with crystal violet.\nFor experiments reported in Table 1, the organism/strain was S.a. Harvard SCO1, the culture medium was TSB and the cell inoculation was at 2×10^9 cfu. For experiments reported in Table 2, the organism/strain was […], the culture medium was M63 and the cell inoculation was at 1.5×10^9 cfu. Biofilm was visualized using the crystal violet method. The data is shown below in Tables 1 and 2:\nFor experiments reported in Tables 3 and 4, the organism/strain was S.a. Harvard SCO1, the culture medium was TSB and the cell inoculation was at 2×10^9 cfu. […]"}, "TasA-mCherry": {"test_system": "TasA-mCherry", "format": "cell-based, Bacillus subtilis", "settings": "6 μM", "protocol": "For fluorescence microscopy analysis, 1 ml of culture was harvested. The cells were washed with PBS buffer and suspended in 50 μl of PBS buffer. Cover slides were pretreated with poly L-lysine (Sigma). Samples were examined using an Olympus workstation BX61 microscope. Images were taken using the automated software program SimplePCI and analyzed with program MetaMorph (Universal Imaging Corporation).\nThe cells were grown to stationary phase with shaking in biofilm-inducing medium in the presence or absence of D-tyrosine (6 μM). […] When the cells were washed by centrifugation, resuspended and then examined by fluorescence microscopy, untreated cells (which were often in clumps) were seen to be intensely decorated with TasA-mCherry. […] The localization of unmodified TasA protein was also analyzed by transmission electron microscopy using gold-labeled anti-TasA antibodies. […] 24-hour-old cultures were incubated without (images 1 and 2) or with (images 3-6) D-tyrosine (0.1 mM) for an additional 12 hours. TasA fibers were stained by immunogold labeling using anti-TasA antibodies, and visualized by transmission electron microscopy as described in the Examples. […] Filled arrows indicate fiber bundles; open arrows indicate individual fibers. The scale bar is 500 nm. The scale bar in the enlargements of images 2, 4 and 6 is 100 nm. […]"}, "cell wall": {"test_system": "cell wall", "assay": "Incorporation of radioactive amino acids into the cell wall", "format": "cell-based, Bacillus subtilis", "settings": "14C-labelled, 10 μCi/ml, 2 h at 37° C.", "method": "Incorporation of amino acids into the cell wall. Cells in 50 ml of culture at the mid exponential phase of growth were harvested by centrifugation and washed with 0.05 M of phosphate buffer (pH 7) and re-suspended in 5 ml of the same buffer. […] The radioactivity of whole cells and cell wall fraction was monitored, and, at intervals samples were removed. For measurement of incorporation into whole cells, 0.1 ml samples were collected. For measurements of incorporation into cell wall, 0.5 ml samples were collected. The cells were harvested by centrifugation and re-suspended in SM buffer [0.5 M sucrose, 20 mM MgCl2, and 10 mM potassium phosphate at pH (6.8)] containing 0.1 mg/ml lysozyme. The cells were then incubated at 37° C. for 10 min. Next, the resulting protoplasts were removed by centrifugation at 5000 rpm for 10 min, leaving the cell wall material in the supernatant fluid. […] Finally, 10 ml of 5% trichloroacetic acid was added to the whole cell samples and the cell wall material and maintained on ice for at least 30 min. The TCA-insoluble material was collected on Millipore filters (0.22 μm pore size, Millipore) and washed with 5% TCA. The filters were air-dried and placed in scintillation vials and the TCA-insoluble counts per minute were determined using a scintillation counter."}}, "data": [{"compound": "N[C@H](Cc1ccc(O)cc1)C(=O)O", "note": "[D-Tyr, D-tyrosine]", "values": [{"measurement": "number of cells attached to the bottom of the biofilm plate", "setting": "Pseudomonas aeruginosa", "result": "dramatic decrease"}, {"measurement": "effect on biofilm formation", "setting": "S. aureus (strain SCO1)", "result": "highly effective in preventing biofilm formation"}, {"measurement": "cell association of TasA-mCherry (fluorescence microscopy of washed cells)", "setting": "TasA-mCherry", "result": "only low levels of fluorescence"}, {"measurement": "total accumulation of TasA-mCherry (total fluorescence)", "setting": "TasA-mCherry; grown to stationary phase", "result": "little or no effect"}, {"measurement": "incorporation into the cell wall", "setting": "cell wall", "result": "incorporated into the cell wall"}]}]}
